This passage reports EC50 results from ChEMBL document CHEMBL4680278 (J Med Chem, 2020).

For this assay, the target named is G-protein coupled receptor 55 (Homo sapiens, UniProt Q9Y2T6). Briefly: Activation of recombinant human GPR55 expressed in HEK293 cells assessed as increase in [35S]-GTPgammaS stimulation incubated for 60 min by scintillation counting method. It is filed as functional, cell-based. A general note: GTPγS is a poorly hydrolysed GTP analogue; its binding reports G protein activation.
G-protein coupled receptor 55, sequence (Q9Y2T6 whole entry): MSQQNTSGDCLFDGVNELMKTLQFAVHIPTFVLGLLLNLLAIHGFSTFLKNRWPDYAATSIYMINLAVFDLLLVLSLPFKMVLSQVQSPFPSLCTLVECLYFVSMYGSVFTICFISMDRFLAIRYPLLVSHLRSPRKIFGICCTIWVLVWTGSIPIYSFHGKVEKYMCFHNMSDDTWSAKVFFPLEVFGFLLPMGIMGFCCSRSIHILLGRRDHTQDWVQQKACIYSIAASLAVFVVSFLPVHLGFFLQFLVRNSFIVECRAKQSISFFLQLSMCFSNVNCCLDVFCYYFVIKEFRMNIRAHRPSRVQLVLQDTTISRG

By EC50 is commonly meant the concentration giving half of the maximal effect. For `C=C(C)[C@@H]1CCC(C)=C[C@H]1c1c(C)cc(O)cc1O`, the EC50 was 2 nM. Take `C=C(C)[C@@H]1CCC(C)=C[C@H]1c1c(O)cc(O)cc1CCCCC`: the EC50 worked out at 2 nM.
